# From patent US20220133702A1, “CYSTIC FIBROSIS TRANSMEMBRANE CONDUCTANCE REGULATOR MODULATORS FOR TREATING AUTOSOMAL DOMINANT POLYCYSTIC KIDNEY DISEASE” (The Johns Hopkins University, priority 2020, published 2022)
# Key:
# cAMP in PN cells = experiment: Cyclic AMP enzyme immunoassay in cells; type: cell-based, mouse; settings: for increase of cAMP activity: PN cells treated with forskolin or IBMX
# Description: FIG. 4A, FIG. 4B, FIG. 4C, FIG. 4D, and FIG. 4E show (FIG. 4A-FIG. 4B) cAMP levels are reduced by VX-809. (FIG. 4A) cAMP levels in mouse tissue were reduced by VX-809. The kidney samples (n=6) analyzed were taken from those depicted in FIG. 1. (FIG. 4B) Confluent PN and PH cells were treated with VX-809 (10 μM) or DMSO for 16 hand then treated with forskolin (100 μM) for 30 min before the cells were harvested for the assay. Columns represent means±SEM. Statistical analysis was performed using a two-tailed Student's t-test. Each set of data is from three individual wells; Note that resting cAMP is greater in PN vs PH cells as previously shown (25). Also note that forskolin caused a large increase in cAMP. A smaller increase occurred with IBMX. However, the increase induced by forskolin alone was similar to that by IBMX plus forskolin. […] (FIG. 4C, FIG. 4D, and FIG. 4E) Adenylyl cyclase expression. (FIG. 4C) Western blot showing the expression of adenylyl cyclase (AC) 6 and AC3 in treated and control PN cells. (FIG. 4D-FIG. 4E) Columns represent means±SEM of the AC3 and AC6 expression. The data were analyzed by non-parametric t-test. The experiment was repeated four times. For all graphs, *P<0.05, **P<0.01, and ***P<0.001;
# It has been shown previously in both animal and cell culture models of ADPKD that cells lacking functional PC1 have elevated cAMP levels when compared to normal. To assess the effect of CFTR correctors, cAMP activity was measured in PC1 conditional knockout mouse kidneys and in PN cells that were either left untreated or treated with VX-809. […] Cells were treated with forskolin, which increased cAMP levels drastically (FIG. 4B). It should be noted that VX-809 reduced the forskolin-induced increase in cAMP, indicating a direct action of VX-809 on adenylyl cyclase activity. […] Treating PN cells with forskolin or IBMX (FIG. 4B) increased the cAMP activity by approximately 10-fold.
# Cyclic AMP assay. Confluent cells were treated with VX-809 (10 μM) or DMSO for 16 h before being harvested for assay. Cyclic AMP levels were measured with a direct cAMP Enzyme Immunoassay Kit (Sigma, #CA200) according to the manufacturer's protocol. The results are expressed as pmole/ml. Statistical analysis was performed using a two-tailed Student's t-test.
# [1] = system: Hsp27, Hsp70, and Hsp90 in PN cells; experiment: Disappearance of Hsps after translation block with cycloheximide; type: cell-based, mouse; settings: cycloheximide 25 μM alone, over 8 h
# Description: FIG. 9A, FIG. 9B, FIG. 9C, FIG. 9D, FIG. 9E, FIG. 9F, FIG. 9G, and FIG. 9H show Hsp27, HSp70, and Hsp90 expression in PN cells treated with VX-809 and/or cycloheximide. (A) Pkd1 null (PN) cells were treated with VX-809 (10 μM) and/or with cycloheximide (25 μM) for indicated time points before being harvested for the assay. (FIG. 9A) Western blot showing expression of Hsp27, Hsp70, and Hsp90 in VX-809-(16 h), cycloheximide-treated, or control PN cells. ((FIG. 9B. (FIG. 9C, and (FIG. 9D) Columns represent averages±standard errors of Hsp27, Hsp70, and Hsp90 expression in cells treated with VX-809 and/or cycloheximide. ((FIG. 9E) Western blot showing expression of Hsp27, Hsp70, and Hsp90 in PN cells treated with VX-809+cycloheximide or control PN cells. ((FIG. 9F, FIG. 9G, and FIG. 9H) Columns represent averages±standard errors of Hsp27, Hsp70, and Hsp90 expression in cells treated only with cycloheximide or in control PN cells. Data were analyzed by non-parametric t-test. The experiments were repeated 3-5 times. *P<0.05, **P<0.01;
# To gain more insight into the mechanism whereby VX-809 alters Hsp protein levels, translation was inhibited by using cycloheximide and the disappearance of the three Hsps was monitored. […] Hsp90 was reduced by approximately 25%, and Hsp27 was unchanged.
structure (smiles),measurement,setting,value
"CC(C)Cn1c(=O)n(C)c(=O)c2[nH]cnc21 [IBMX, 3-isobutyl-1-methylxanthine]",increase of cAMP activity,cAMP in PN cells,approximately 10 fold
C[C@@H]1C[C@@H]([C@H](O)CC2CC(=O)NC(=O)C2)C(=O)[C@@H](C)C1 [cycloheximide],steady-state levels of each of the Hsps,[1],unchanged
C=C[C@@]1(C)CC(=O)[C@]2(O)[C@@]3(C)[C@@H](O)CCC(C)(C)[C@@H]3[C@H](O)[C@H](OC(C)=O)[C@@]2(C)O1 [forskolin],increase of cAMP activity,cAMP in PN cells,approximately 10 fold
same,elevation of cAMP activity,"cAMP in PN cells; forskolin, as stated at the end of Example 4",~500 fold
